# In ChEMBL document CHEMBL3352660, “Design, synthesis and pharmacological evaluation of novel polycyclic heteroarene ethers as PDE10A inhibitors: part II” (Bioorg Med Chem Lett, 2014):
# Experiments:
# Rattus norvegicus [1] = assay: Antipsychotic activity in Sprague-Dawley rat psychosis model assessed as reversal of MK-801-induced stereotypy at 1 mg/kg, po administered 2 hrs prior to MK-801 challenge measured every 5 mins for 1 hr starting 15 mins post MK-801 injection relative to vehicle-treated control; type: functional
# [2] = target: High affinity 3',5'-cyclic-AMP phosphodiesterase 7A (Homo sapiens) (UniProt Q13946); assay: Inhibition of human recombinant PDE7A using [3H]-cAMP as substrate at 10 uM after 30 mins by two-step radiometric assay
# [3] = Cmax in Swiss albino mouse at 10 mg/kg, po; type: ADME, organism-based; design: dose 10 mg/kg, route oral; details: in vivo
# [4] = Metabolic stability in Wistar rat liver microsomes incubated for 10 mins prior to NADPH addition measured after 60 mins by LC/MS/MS analysis; type: ADME; details: read-out: Stability
# [5] = Apparent permeability of the compound by PAMPA; type: physicochemical
# [6] = Cmax in Sprague-Dawley rat at 10 mg/kg, po; type: ADME, organism-based; design: dose 10 mg/kg, route oral; details: in vivo
# Rattus norvegicus [7] = assay: Antipsychotic activity in po dosed Sprague-Dawley rat psychosis model assessed as reversal of MK-801-induced locomotion administered 2 hrs prior to MK-801 challenge measured every 5 mins for 1 hr starting 15 mins post MK-801 injection relative to vehicle-treated control; type: functional
# [8] = target: cGMP-inhibited 3',5'-cyclic phosphodiesterase 3A (Homo sapiens) (UniProt Q14432); assay: Inhibition of human recombinant PDE3A using cAMP as substrate at 10 uM after 30 mins by HTRF method
# Rattus norvegicus [9] = assay: Antipsychotic activity in Sprague-Dawley rat psychosis model assessed as reversal of MK-801-induced ataxia at 1 mg/kg, po administered 2 hrs prior to MK-801 challenge measured every 5 mins for 1 hr starting 15 mins post MK-801 injection relative to vehicle-treated control; type: functional
# Rattus norvegicus [10] = assay: Antipsychotic activity in Sprague-Dawley rat prepulse inhibition deficit model assessed as reversal of MK-801-induced effect at 3 mg/kg, po administered 110 mins prior to MK-801 challenge relative to vehicle-treated control; type: functional; design: scale not given: the % may be the effect or the level left
# Mus musculus = assay: Ratio of ED50 for po dosed Swiss albino mouse assessed as inhibition of apomorphine-induced sniffing behavior administered 30 mins prior to apomorphine challenge to ED50 for po dosed Swiss albino mouse assessed as inhibition of apomorphine-induced climbing behavior administered 30 mins prior to apomorphine challenge; type: functional
# Rattus norvegicus [11] = assay: Antipsychotic activity in Sprague-Dawley rat prepulse inhibition deficit model assessed as reversal of MK-801-induced effect at 10 mg/kg, po administered 110 mins prior to MK-801 challenge relative to vehicle-treated control; type: functional; design: scale not given: the % may be the effect or the level left
# Rattus norvegicus [12] = assay: Antipsychotic activity in Sprague-Dawley rat conditioned avoidance response model assessed as avoidance of shock at 10 mg/kg, po measured after 2 hrs relative to vehicle-treated control; type: functional
# Rattus norvegicus [13] = assay: Antipsychotic activity in Sprague-Dawley rat conditioned avoidance response model assessed as avoidance of shock at 2.5 mg/kg, po measured after 2 hrs relative to vehicle-treated control; type: functional
# [14] = Metabolic stability in human liver microsomes incubated for 10 mins prior to NADPH addition measured after 60 mins by LC/MS/MS analysis; type: ADME; details: read-out: Stability
# Rattus norvegicus [15] = assay: Antipsychotic activity in Sprague-Dawley rat psychosis model assessed as reversal of MK-801-induced ataxia at 3 mg/kg, po administered 2 hrs prior to MK-801 challenge measured every 5 mins for 1 hr starting 15 mins post MK-801 injection relative to vehicle-treated control; type: functional
# [16] = AUC (0 to t) in Sprague-Dawley rat at 10 mg/kg, po; type: ADME, organism-based; design: dose 10 mg/kg, route oral; details: plasma
# [17] = Plasma clearance in iv dosed Sprague-Dawley rat; type: ADME, organism-based
# [18] = Tmax in Swiss albino mouse at 10 mg/kg, po; type: ADME, organism-based; design: dose 10 mg/kg, route oral; details: in vivo
# Rattus norvegicus [19] = assay: Antipsychotic activity in Sprague-Dawley rat psychosis model assessed as reversal of MK-801-induced locomotion at 1 mg/kg, po administered 2 hrs prior to MK-801 challenge measured every 5 mins for 1 hr starting 15 mins post MK-801 injection relative to vehicle-treated control; type: functional
# [20] = target: T1, cAMP and cAMP-inhibited cGMP 3',5'-cyclic phosphodiesterase 10A (Homo sapiens, UniProt Q9Y233); assay: Inhibition of human recombinant GST-tagged PDE10A using [3H]-cAMP as substrate after 30 mins by scintillation proximity assay
# [21] = target: Dual 3',5'-cyclic-AMP and -GMP phosphodiesterase 11A (Homo sapiens) (UniProt Q9HCR9); assay: Inhibition of human recombinant PDE11A using [3H]-cAMP as substrate at 1 uM after 30 mins by two-step radiometric assay
# [22] = target: T2, cAMP and cAMP-inhibited cGMP 3',5'-cyclic phosphodiesterase 10A (Rattus norvegicus, UniProt Q9QYJ6); assay: Inhibition of rat recombinant GST-tagged PDE10A using [3H]-cAMP as substrate by scintillation proximity assay
# T2 sequence (Q9QYJ6 whole entry): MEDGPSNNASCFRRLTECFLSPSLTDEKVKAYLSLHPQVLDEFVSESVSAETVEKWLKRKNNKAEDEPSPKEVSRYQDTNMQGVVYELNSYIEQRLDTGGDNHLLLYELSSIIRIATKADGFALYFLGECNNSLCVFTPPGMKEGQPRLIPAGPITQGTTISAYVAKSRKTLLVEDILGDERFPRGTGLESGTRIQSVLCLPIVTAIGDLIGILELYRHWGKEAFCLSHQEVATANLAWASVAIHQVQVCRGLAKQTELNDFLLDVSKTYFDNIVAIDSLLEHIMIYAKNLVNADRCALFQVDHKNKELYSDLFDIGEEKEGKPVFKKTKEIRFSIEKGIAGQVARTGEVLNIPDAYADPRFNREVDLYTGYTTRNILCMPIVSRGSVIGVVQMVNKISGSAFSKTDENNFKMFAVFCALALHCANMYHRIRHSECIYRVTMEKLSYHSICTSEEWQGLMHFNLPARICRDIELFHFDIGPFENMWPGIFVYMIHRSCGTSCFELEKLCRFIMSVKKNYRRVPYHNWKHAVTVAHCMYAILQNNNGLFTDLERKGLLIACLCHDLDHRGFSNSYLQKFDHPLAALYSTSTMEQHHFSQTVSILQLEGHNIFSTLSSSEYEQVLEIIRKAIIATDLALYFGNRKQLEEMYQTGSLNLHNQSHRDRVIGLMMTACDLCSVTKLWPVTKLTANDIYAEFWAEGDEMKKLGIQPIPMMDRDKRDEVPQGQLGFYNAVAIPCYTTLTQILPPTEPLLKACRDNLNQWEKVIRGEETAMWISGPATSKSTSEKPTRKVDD
# Rattus norvegicus [23] = assay: Antipsychotic activity in Sprague-Dawley rat psychosis model assessed as reversal of MK-801-induced ataxia at 10 mg/kg, po administered 2 hrs prior to MK-801 challenge measured every 5 mins for 1 hr starting 15 mins post MK-801 injection relative to vehicle-treated control; type: functional
# [24] = Tmax in Sprague-Dawley rat at 10 mg/kg, po; type: ADME, organism-based; design: dose 10 mg/kg, route oral; details: in vivo
# [25] = target: T1, cAMP and cAMP-inhibited cGMP 3',5'-cyclic phosphodiesterase 10A; assay: Inhibition of human recombinant GST-tagged PDE10A using [3H]-cAMP as substrate at 1 uM after 30 mins by scintillation proximity assay
# T1 sequence (Q9Y233 whole entry): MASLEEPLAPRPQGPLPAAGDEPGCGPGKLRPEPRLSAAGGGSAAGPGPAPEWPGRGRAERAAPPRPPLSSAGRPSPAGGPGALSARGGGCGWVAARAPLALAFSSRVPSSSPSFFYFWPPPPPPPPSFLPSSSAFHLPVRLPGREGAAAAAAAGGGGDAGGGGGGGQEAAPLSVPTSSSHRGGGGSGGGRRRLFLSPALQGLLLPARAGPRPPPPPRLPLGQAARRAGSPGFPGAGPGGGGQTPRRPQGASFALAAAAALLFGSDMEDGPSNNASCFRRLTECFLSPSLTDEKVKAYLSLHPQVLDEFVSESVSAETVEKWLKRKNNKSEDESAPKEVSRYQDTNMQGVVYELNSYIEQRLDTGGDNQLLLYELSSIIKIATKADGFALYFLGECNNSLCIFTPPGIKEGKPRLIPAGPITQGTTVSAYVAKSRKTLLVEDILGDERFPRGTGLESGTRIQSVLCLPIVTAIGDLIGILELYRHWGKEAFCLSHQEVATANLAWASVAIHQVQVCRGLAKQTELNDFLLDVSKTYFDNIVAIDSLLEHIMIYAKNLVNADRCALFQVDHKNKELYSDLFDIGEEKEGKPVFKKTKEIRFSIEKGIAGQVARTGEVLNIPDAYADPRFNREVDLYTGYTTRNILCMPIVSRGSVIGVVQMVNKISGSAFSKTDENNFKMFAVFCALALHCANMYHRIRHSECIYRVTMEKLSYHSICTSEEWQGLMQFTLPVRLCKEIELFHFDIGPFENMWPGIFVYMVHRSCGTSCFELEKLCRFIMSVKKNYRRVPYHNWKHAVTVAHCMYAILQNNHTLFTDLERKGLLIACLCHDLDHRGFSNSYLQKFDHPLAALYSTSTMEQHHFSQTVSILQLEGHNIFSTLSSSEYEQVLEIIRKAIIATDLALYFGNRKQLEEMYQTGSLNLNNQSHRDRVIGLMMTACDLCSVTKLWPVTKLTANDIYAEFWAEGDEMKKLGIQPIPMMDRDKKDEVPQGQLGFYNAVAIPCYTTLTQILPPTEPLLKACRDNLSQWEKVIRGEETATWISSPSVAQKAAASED
# Sequence of Dual 3',5'-cyclic-AMP and -GMP phosphodiesterase 11A (Homo sapiens) (Q9HCR9 whole entry, looked up): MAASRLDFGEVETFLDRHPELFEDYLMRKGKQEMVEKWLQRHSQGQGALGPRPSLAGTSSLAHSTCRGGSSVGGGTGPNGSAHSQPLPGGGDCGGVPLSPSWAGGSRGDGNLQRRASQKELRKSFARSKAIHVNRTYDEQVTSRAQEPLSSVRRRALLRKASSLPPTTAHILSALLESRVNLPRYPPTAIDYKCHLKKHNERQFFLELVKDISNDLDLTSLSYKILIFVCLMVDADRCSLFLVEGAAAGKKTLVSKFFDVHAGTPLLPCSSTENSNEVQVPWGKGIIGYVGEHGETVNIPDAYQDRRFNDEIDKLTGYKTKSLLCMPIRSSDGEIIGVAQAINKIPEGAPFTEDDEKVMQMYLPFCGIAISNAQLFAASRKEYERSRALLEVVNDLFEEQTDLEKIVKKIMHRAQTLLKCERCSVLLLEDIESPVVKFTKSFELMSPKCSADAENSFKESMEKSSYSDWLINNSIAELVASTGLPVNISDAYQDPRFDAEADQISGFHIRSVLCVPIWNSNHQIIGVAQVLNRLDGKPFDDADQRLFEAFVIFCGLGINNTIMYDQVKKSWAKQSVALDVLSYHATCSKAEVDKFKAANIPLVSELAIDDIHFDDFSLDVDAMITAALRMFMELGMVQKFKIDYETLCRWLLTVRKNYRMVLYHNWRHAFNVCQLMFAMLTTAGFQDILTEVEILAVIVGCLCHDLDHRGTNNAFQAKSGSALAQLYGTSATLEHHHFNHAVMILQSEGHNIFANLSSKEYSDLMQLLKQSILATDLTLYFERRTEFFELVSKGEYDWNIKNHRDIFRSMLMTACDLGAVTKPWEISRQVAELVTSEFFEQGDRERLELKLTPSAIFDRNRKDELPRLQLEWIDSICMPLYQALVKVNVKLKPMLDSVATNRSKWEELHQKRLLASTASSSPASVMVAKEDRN
# Sequence of High affinity 3',5'-cyclic-AMP phosphodiesterase 7A (Homo sapiens) (Q13946 whole entry): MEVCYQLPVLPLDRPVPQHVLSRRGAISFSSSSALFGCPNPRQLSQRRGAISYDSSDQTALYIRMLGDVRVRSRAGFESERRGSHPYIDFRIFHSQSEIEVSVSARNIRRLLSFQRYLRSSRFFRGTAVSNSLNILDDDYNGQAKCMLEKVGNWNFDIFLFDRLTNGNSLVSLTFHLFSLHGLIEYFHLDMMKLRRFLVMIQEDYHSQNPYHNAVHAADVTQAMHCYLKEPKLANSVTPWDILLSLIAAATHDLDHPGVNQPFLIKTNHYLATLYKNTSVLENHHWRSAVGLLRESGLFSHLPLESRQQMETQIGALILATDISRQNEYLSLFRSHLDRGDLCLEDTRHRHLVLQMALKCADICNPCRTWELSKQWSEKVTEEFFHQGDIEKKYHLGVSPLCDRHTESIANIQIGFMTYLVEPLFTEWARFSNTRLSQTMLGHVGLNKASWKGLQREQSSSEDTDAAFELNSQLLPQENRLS
# Sequence of cGMP-inhibited 3',5'-cyclic phosphodiesterase 3A (Homo sapiens) (Q14432 whole entry): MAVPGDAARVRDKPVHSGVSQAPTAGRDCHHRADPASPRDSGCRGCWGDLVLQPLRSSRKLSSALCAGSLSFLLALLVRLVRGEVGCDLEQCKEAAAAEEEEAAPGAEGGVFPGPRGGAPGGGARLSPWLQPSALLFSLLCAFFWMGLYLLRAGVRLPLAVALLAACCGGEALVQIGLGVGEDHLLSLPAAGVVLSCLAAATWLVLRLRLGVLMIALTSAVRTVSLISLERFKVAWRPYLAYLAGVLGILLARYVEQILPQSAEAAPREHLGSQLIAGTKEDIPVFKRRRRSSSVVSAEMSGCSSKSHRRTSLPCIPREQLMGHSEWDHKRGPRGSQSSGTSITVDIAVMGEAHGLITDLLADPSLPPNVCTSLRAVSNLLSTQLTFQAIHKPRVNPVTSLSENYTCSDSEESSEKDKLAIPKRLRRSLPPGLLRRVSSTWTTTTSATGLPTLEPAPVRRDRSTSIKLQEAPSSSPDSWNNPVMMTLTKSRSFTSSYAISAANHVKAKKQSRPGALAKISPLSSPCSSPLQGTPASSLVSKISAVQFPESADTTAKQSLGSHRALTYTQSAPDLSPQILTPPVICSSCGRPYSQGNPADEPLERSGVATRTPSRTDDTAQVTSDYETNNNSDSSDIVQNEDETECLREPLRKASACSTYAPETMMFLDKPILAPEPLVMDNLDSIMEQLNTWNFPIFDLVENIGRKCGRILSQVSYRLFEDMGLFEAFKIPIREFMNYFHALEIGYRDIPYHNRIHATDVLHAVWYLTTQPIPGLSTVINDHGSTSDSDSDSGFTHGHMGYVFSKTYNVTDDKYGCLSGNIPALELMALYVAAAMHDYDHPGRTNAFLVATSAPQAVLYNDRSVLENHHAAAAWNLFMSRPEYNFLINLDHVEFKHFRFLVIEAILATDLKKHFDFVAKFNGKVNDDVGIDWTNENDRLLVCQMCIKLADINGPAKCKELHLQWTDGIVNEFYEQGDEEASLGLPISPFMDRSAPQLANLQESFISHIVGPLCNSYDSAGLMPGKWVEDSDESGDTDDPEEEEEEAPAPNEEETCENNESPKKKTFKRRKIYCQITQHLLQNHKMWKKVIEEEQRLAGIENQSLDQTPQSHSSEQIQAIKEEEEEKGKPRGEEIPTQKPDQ
compound,measurement,setting,value
Cn1cc(-c2ccc(Oc3nccnc3-c3ccncc3)cc2)c2ncccc21,Activity,Rattus norvegicus [1],95%
same,inhibition,[2],44.5%
same,Cmax,[3],5490 ng/mL
same,remaining at 1 h,[4],51%
same,Papp,[5],2.97 ×10⁻⁶ cm/s
same,Cmax,[6],27600 ng/mL
same,ED50,Rattus norvegicus [7],1.63 mg/kg
same,inhibition,[8],6.3%
same,Activity,Rattus norvegicus [9],59%
same,Activity,Rattus norvegicus [10],64%
same,Ratio ED50,Mus musculus,10.63
same,Activity,Rattus norvegicus [11],88%
same,Activity,Rattus norvegicus [12],90%
same,Activity,Rattus norvegicus [13],64%
same,remaining at 1 h,[14],77.4%
same,Activity,Rattus norvegicus [15],59%
same,AUC(0-t),[16],410 µg·h/mL
same,clearance,[17],1.6 mL/min/kg
same,Tmax,[18],30 min
same,Activity,Rattus norvegicus [19],27%
same,IC50,[20],6.3 nM
same,inhibition,[21],4.9%
same,IC50,[22],16.1 nM
same,Activity,Rattus norvegicus [23],86%
same,Tmax,[24],2 h
same,inhibition,[25],98%
